# Laboratory results: ChEMBL document CHEMBL3108715, “Pan-histone demethylase inhibitors simultaneously targeting Jumonji C and lysine-specific demethylases display high anticancer activities” (J Med Chem, 2014)
# Active and inactive are the calls of the source. The rule behind the calls is not given here.
# Tests used:
# Egl nine homolog 1 = Egl nine homolog 1 (Homo sapiens, UniProt Q9GZT9); assay: Inhibition of PHD2 (unknown origin) by mass spectrometry
# LNCaP [1] = assay: Antimigratory activity against human LNCAP cells at 50 uM after 72 hrs; assay type: functional, cell-based
# HCT-116 [2] = assay: Antimigratory activity against human HCT116 cells at 50 uM after 72 hrs; assay type: functional, cell-based
# HCT-116 [3] = assay: Cytotoxicity against human HCT116 cells at 50 uM after 6 hrs; assay type: functional, cell-based
# [4] = Induction of apoptosis in human MePR cells assessed as accumulation at pre-G1 phase at 50 uM after 24 hrs by propidium iodide staining-based FACS analysis (reference value: 8.4%); assay type: cell-based
# HCT-116 [5] = assay: Inhibition of LSD1/JmjC in human HCT116 cells assessed as increase in H3K9me3 level at 50 uM by Western blotting analysis; assay type: cell-based
# HCT-116 [6] = assay: Inhibition of LSD1/JmjC in human HCT116 cells assessed as increase in H3K4me2/3 level at 50 uM by Western blotting analysis; assay type: cell-based
# LNCaP [7] = assay: Inhibition of LSD1/JmjC in human LNCAP cells assessed as increase in H3K9me3 level at 50 uM by Western blotting analysis; assay type: cell-based
# LNCaP [8] = assay: Cytotoxicity against human LNCAP cells at 50 uM after 72 hrs; assay type: functional, cell-based
# HCT-116 [9] = assay: Cell cycle arrest in human HCT116 cells assessed as accumulation at pre-G1 phase at 50 uM after 30 hrs by propidium iodide staining-based FACS analysis; assay type: functional
# LNCaP [10] = assay: Induction of apoptosis in human LNCAP cells at 10 to 100 uM after 48 hrs by propidium iodide staining-based FACS analysis; assay type: functional, cell-based
# HCT-116 [11] = assay: Induction of apoptosis in human HCT116 cells at 10 to 100 uM after 48 hrs by propidium iodide staining-based FACS analysis; assay type: functional, cell-based
# [12] = biological target: Hypoxia-inducible factor 1-alpha inhibitor (Homo sapiens, UniProt Q9NWT6); assay: Inhibition of FIH (unknown origin) by mass spectrometry
# Chain of Hypoxia-inducible factor 1-alpha inhibitor (Q9NWT6 whole entry): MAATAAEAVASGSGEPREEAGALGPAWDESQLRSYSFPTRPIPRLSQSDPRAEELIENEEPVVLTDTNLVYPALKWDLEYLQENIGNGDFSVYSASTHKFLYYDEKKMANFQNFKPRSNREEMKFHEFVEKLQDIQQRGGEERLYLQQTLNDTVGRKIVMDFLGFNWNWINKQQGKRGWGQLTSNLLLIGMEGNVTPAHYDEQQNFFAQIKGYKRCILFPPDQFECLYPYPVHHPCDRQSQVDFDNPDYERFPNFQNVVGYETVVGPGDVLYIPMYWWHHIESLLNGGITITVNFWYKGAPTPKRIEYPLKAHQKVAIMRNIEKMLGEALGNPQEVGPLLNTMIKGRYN
# LNCaP [13] = assay: Cell cycle arrest in human LNCAP cells assessed as accumulation at pre-G1 phase at 50 uM after 30 hrs by propidium iodide staining-based FACS analysis; assay type: functional
# LNCaP [14] = assay: Cell cycle arrest in human LNCAP cells assessed as accumulation at G1 phase at 50 uM after 30 hrs by propidium iodide staining-based FACS analysis; assay type: functional
# LNCaP [15] = assay: Inhibition of LSD1/JmjC in human LNCAP cells assessed as increase in H3K4me2/3 level at 50 uM by Western blotting analysis; assay type: cell-based
# Chain of Egl nine homolog 1 (Q9GZT9 whole entry): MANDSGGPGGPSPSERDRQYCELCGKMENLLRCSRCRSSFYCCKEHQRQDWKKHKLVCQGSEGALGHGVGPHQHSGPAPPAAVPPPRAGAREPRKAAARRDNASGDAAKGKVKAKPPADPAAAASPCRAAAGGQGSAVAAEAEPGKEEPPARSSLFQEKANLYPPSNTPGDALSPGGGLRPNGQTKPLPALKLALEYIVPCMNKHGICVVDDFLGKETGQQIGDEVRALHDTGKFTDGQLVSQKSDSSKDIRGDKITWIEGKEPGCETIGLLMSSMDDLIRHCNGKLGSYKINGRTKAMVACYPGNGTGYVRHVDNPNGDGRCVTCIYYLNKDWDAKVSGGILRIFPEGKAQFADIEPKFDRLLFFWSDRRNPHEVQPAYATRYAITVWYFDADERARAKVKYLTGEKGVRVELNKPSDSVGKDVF
IC50 (Egl nine homolog 1),IC50 [12],Compound,Activity (LNCaP [1]),Activity (HCT-116 [2]),Activity (HCT-116 [3]),Activity [4],inhibition (HCT-116 [5]),inhibition (HCT-116 [6]),inhibition (LNCaP [7]),Activity (LNCaP [8]),Activity (HCT-116 [9]),Activity (LNCaP [10]),Activity (HCT-116 [11]),Activity (LNCaP [13]),Activity (LNCaP [14]),inhibition (LNCaP [15])
8.5 µM,25 µM,Cl.N[C@@H]1C[C@H]1c1ccc(NC(=O)c2ccc(O)c3ncccc23)cc1 (relative stereo),inactive,inactive,Active,4.2%,Active,Active,Active,Active,Active,Active,Active,Active,>=90%,Active
–,–,Cl.N[C@H]1C[C@@H]1c1ccc(NC(=O)CCCCCNC(=O)c2ccc(O)c3ncccc23)cc1 (relative stereo),–,–,–,–,–,–,–,–,–,–,–,Active,>=90%,–
278 µM,> 100 µM,N[C@@H]1C[C@H]1c1ccc(NC(=O)c2ccnc(-c3cc(C(=O)O)ccn3)c2)cc1 (relative stereo),–,–,–,–,–,–,–,–,–,–,–,–,–,–
–,–,COC(=O)c1ccnc(-c2cc(C(=O)Nc3ccc([C@@H]4C[C@H]4N)cc3)ccn2)c1.Cl (relative stereo),inactive,Active,Active,12.8%,Active,Active,Active,Active,Active,Active,Active,Active,>=90%,Active
